In brackets after ≈: the same amount, converted by molar mass. Read-outs that look alike come from different tables or passages of the source. Where a SMILES comes first, the peptide text is derived from it.
Columns and labels:
[1] = system: human erythrocytes; assay: Hemolytic activity on human erythrocytes; conditions: 30 minutes, 0 to 500 μg/ml, absorbance 414 nm
Description: 1·10^6 human erythrocytes were incubated for 30 minutes with increasing concentrations of peptides (from 0 to 500 μg/ml) in a final volume of 150 μl. The hemolytic activity was evaluated by measurement of the absorbance (Abs) at the wave length 414 nm (Absorbance of hemoglobin) of the cellular supernatants. The absorbance of the supernatant after incubation of the erythrocytes in water corresponds to 100% (Abs100) of hemolysis and the absorbance of the supernatant after incubation of the erythrocytes in PBS corresponds to 0% of hemolysis (Abs0). The hemolytic activity of the peptides expressed in percentage corresponds to (Abspeptide−Abs0)/Abs100×100.

[2] = system: Streptococcus pneumoniae ATCC 6303; format: cell-based
[3] = system: Escherichia coli ATCC 35218; format: cell-based
[4] = system: Pseudomonas aeruginosa ATCC 27853; format: cell-based
[5] = system: C. neoformans Cn52D; format: cell-based, Cryptococcus neoformans
Description: D. Determination of the miminimal inhibitory concentration (MIC) in liquid medium for the Filamentous Fungi and Yeast
Peptide concentrations tested: from 0.2 μg/ml to 100 μg/ml.

[6] = system: Enterococcus faecalis ATCC 29212; format: cell-based
[7] = system: Staphylococcus aureus ATCC 25923; format: cell-based
[8] = system: Bacillus cereus ATCC 11778; format: cell-based
[9] = system: Haemophilus influenzae ATCC 49247; format: cell-based
[10] = system: Micrococcus luteus ATCC 9341; format: cell-based
[11] = system: Staphylococcus aureus ATCC 14154; format: cell-based
[12] = system: Enterococcus faecium ATCC 35667; format: cell-based
[13] = system: Enterococcus faecalis ATCC 19433; format: cell-based
[14] = system: Listeria monocytogenes ATCC 19115; format: cell-based
[15] = system: Neisseria sica ATCC 9913; format: cell-based
[16] = system: Staphylococcus epidermidis ATCC 12228; format: cell-based
[17] = system: Citrobacter freundii ATCC 8090; format: cell-based
[18] = system: Streptococcus pyogenes ATCC 19615; format: cell-based
[19] = system: Enterobacter cloacae ATCC 23355; format: cell-based
[20] = system: Salmonella typhimurium ATCC 14028; format: cell-based
[21] = In vivo toxicity: maximal tolerated dose (MTD); conditions: mouse, female OFI mice, intravenous perfusion approx. 15 minutes, 28 days after an injection
Description: The maximal tolerated dose (MTD) for each peptide was determined on female OFI mice at 28 days after an injection. The MTD was defined as the maximal nonlethal dose that could be injected. The peptides were administered by the intravenous route as a perfusion of approximately 15 minutes duration. The injection volume was 10 μl/g, the perfusion rate was 1.2 ml/hour and the excipient was a solution of NaCl at 0.8%.

[22] = system: Streptococcus agalactiae ATCC 13813; format: cell-based
[23] = system: Proteus vulgaris ATCC 13315; format: cell-based
[24] = system: Shigella flexneri ATCC 112022
[25] = system: Serratia marcescens ATCC 8100; format: cell-based
[26] = system: Klebsiella pneumoniae ATCC 13883; format: cell-based
[27] = system: Escherichia coli ATCC 25922; format: cell-based
[28] = system: Streptococcus pneumoniae ATCC 49619; format: cell-based
[29] = system: Bacillus subtilis ATCC 6633; format: cell-based
[30] = system: Acinetobacter baumanii ATCC 19606; format: cell-based
[31] = system: Shigella sonnei ATCC 25931
Description: The MIC values were determined by the method of microdilution in liquid medium (NCCLS M7A5) for all of the bacterial species on 96-well polystyrene plates.
The culture medium was Mueller-Hinton broth (MHB) (pH≈7.2-7.4) with supplements according to the bacterial species studied: • MHB alone for the non-exigent species, • MHB+3% lysed horse blood for the streptococci, Listeria and Neisseria, • MHB+hemin 15 mg/l+NAD 15 mg/l+yeast extract 5 g/l for Haemophilus.
The bacterial inoculum was prepared from re-isolation performed on: • CLED agar: non-exigent strains, • blood agar+5% goat blood: streptococci, Listeria and Neisseria • chocolate agar+5% goat blood: Haemophilus, Neisseria.
The final inoculum was at ≈5·10^5 cfu/ml (colony forming units). 50 μl of bacterial inoculum was distributed per well containing an equal volume of the peptide solution diluted by half in the appropriate culture medium depending on the bacterial species (0.5 to 512 μg/ml). The cultures were incubated at 35° C. in ambient air for 16 to 20 hours (20 to 24 h for the streptococci).
Determination of the MBC values was performed after inhibition and reading of the MIC plates:
A volume of 3 μl of each concentration of antibiotic was deposited on the agar media: • MH: for the non-exigent strains, • MH+5% sheep blood: for the streptococci, Listeria, Bacillus and Neisseria, • HTM: for the Haemophilus.
The agars were incubated for 18 h at 35° C. in atmosphere: • in ambient air: for the non-exigent strains, • with 5-6% of CO2: for the streptococci, Listeria, Haemophilus and Neisseria.
The MBC is the lowest concentration of antibiotic that inhibits all bacterial growth on the transplant agar (<0. 1% of survivors).

[32] = system: Enterobacter aerogenes ATCC 13048; format: cell-based
[33] = system: bacteria; assay: In vitro antibacterial properties under standard evaluation conditions (incubation of 18 hours); format: cell-based; conditions: concentrations described in the literature
Source text: In contrast, I unexpectedly discovered that KLAKLAK (SEQ ID NO: 11) is capable of conferring antibacterial and/or antifungal properties on peptides comprising this motif and a peptide sequence not having antibacterial and/or antifungal properties.

[34] = Javadpour et al. 1996; cited from earlier work
[35] = system: three strains of bacteria (E. coli, P. aeruginosa and S. aureus); conditions: incubation period of 4 hours; cited from earlier work

For `CC(C)C[C@H](NC(=O)[C@H](CCCCN)NC(=O)CNC(=O)[C@H](CCCCN)NC(=O)[C@H](CCCCN)NC(=O)[C@H](CCCCN)NC(=O)[C@H](CCCNC(=N)N)NC(=O)[C@H](CCCCN)NC(=O)CNC(=O)[C@H](CCCCN)NC(=O)[C@H](C)NC(=O)[C@H](CC(C)C)NC(=O)[C@H](CCCCN)NC(=O)[C@H](C)NC(=O)[C@H](CC(C)C)NC(=O)[C@H](CCCCN)NC(=O)[C@H](CCCCN)NC(=O)[C@H](C)NC(=O)[C@H](CC(C)C)NC(=O)[C@H](CCCCN)NC(=O)[C@H](C)NC(=O)[C@H](CC(C)C)NC(=O)[C@@H](N)CCCCN)C(=O)NCC(=O)N[C@@H](CCCCN)C(=O)N[C@@H](CCCCN)C(=O)N[C@@H](CCCNC(=N)N)C(=O)N[C@@H](CC(=O)O)C(=O)N1CCC[C@H]1C(=O)O` [Peptide 3] (H-KLAKLAKKLAKLAKGKRKKKGKLGKKRDP-OH; N-terminus and C-terminus assumed), the hemolytic activity [1] was “did not exhibit hemolytic activity”, the MIC [2] was over 500 µg/mL and the MIC [3] was 64 µg/mL (≈ 19.8 µM). For the same compound, the MIC [4] was 64 µg/mL (≈ 19.8 µM), the MIC ([5]; tested 0.2 to 100 μg/ml) was 1.56 µg/mL (≈ 0.483 µM) and the MIC [6] was 64 µg/mL (≈ 19.8 µM). The MIC [7] was 64 µg/mL (≈ 19.8 µM).
For `CC(C)C[C@H](NC(=O)CNC(=O)[C@H](CCCNC(=N)N)NC(=O)[C@H](CCCCN)NC(=O)[C@@H](N)C(C)C)C(=O)N[C@@H](CCCCN)C(=O)N[C@@H](CC(C)C)C(=O)N[C@@H](CCCCN)C(=O)N[C@@H](CC(C)C)C(=O)N[C@@H](C)C(=O)N[C@@H](CCCCN)C(=O)N[C@@H](CC(C)C)C(=O)N[C@@H](C)C(=O)N[C@@H](CCCCN)C(=O)N[C@@H](CCCCN)C(=O)N[C@@H](CC(C)C)C(=O)N[C@@H](C)C(=O)N[C@@H](CCCCN)C(=O)N[C@@H](CC(C)C)C(=O)N[C@@H](C)C(=O)N[C@@H](CCCCN)C(=O)O` [Peptide 1] (H-VKRGLKLKLAKLAKKLAKLAK-OH; N-terminus and C-terminus assumed), the MBC [8] was 128 µg/mL (≈ 55.2 µM), the MIC [8] was 128 µg/mL (≈ 55.2 µM) and the MBC [9] was 64 µg/mL (≈ 27.6 µM). It also gave an MIC [9] of 64 µg/mL (≈ 27.6 µM), an MBC [2] of 64 µg/mL (≈ 27.6 µM) and an MIC [2] of 64 µg/mL (≈ 27.6 µM). For the same compound, the MBC [3] was 8 µg/mL (≈ 3.45 µM), the MIC [3] was 8 µg/mL (≈ 3.45 µM) and the MBC [4] was over 512 µg/mL. For the same compound, the MIC [4] was 512 µg/mL (≈ 221 µM), the MBC [10] was 4 µg/mL (≈ 1.72 µM) and the MIC [10] was 4 µg/mL (≈ 1.72 µM). For the same compound, the MBC [11] was 128 µg/mL (≈ 55.2 µM), the MIC [11] was 64 µg/mL (≈ 27.6 µM) and the MBC [12] was over 512 µg/mL. It also gave an MIC [12] of 128 µg/mL (≈ 55.2 µM), an MBC [13] of over 512 µg/mL and an MIC [13] of over 512 µg/mL. The MBC [14] was 128 µg/mL (≈ 55.2 µM), the MIC [14] was 128 µg/mL (≈ 55.2 µM) and the MBC [15] was 128 µg/mL (≈ 55.2 µM). The MIC [15] was 4 µg/mL (≈ 1.72 µM), the MBC [16] was 4 µg/mL (≈ 1.72 µM) and the MIC [16] was 4 µg/mL (≈ 1.72 µM). For the same compound, the MIC [5] was 12.5 µg/mL (≈ 5.39 µM), the MBC [17] was 16 µg/mL (≈ 6.9 µM) and the MIC [17] was 16 µg/mL (≈ 6.9 µM). The MBC [18] was 64 µg/mL (≈ 27.6 µM), the MIC [18] was 64 µg/mL (≈ 27.6 µM) and the MBC [19] was 16 µg/mL (≈ 6.9 µM). For the same compound, the MIC [19] was 16 µg/mL (≈ 6.9 µM), the MBC [20] was 8 µg/mL (≈ 3.45 µM) and the MIC [20] was 8 µg/mL (≈ 3.45 µM). For the same compound, the MTD at 28 days [21] was over 23.2 mg/kg, the MBC [6] was over 512 µg/mL and the MIC [6] was over 512 µg/mL. For the same compound, the MBC [7] was 64 µg/mL (≈ 27.6 µM), the MIC [7] was 64 µg/mL (≈ 27.6 µM) and the MBC [22] was 128 µg/mL (≈ 55.2 µM). It also gave an MIC [22] of 128 µg/mL (≈ 55.2 µM), an MBC [23] of 256 µg/mL (≈ 110 µM) and an MIC [23] of 128 µg/mL (≈ 55.2 µM). For the same compound, the MBC [24] was 32 µg/mL (≈ 13.8 µM), the MIC [24] was 16 µg/mL (≈ 6.9 µM) and the MBC [25] was over 512 µg/mL. The MIC [25] was over 512 µg/mL, the MBC [26] was over 512 µg/mL and the MIC [26] was over 512 µg/mL. The MBC [27] was 16 µg/mL (≈ 6.9 µM), the MIC [27] was 16 µg/mL (≈ 6.9 µM) and the MBC [28] was 256 µg/mL (≈ 110 µM). It also gave an MIC [28] of 128 µg/mL (≈ 55.2 µM), an MBC [29] of 8 µg/mL (≈ 3.45 µM) and an MIC [29] of 8 µg/mL (≈ 3.45 µM). It also gave an MBC [30] of 16 µg/mL (≈ 6.9 µM), an MIC [30] of 8 µg/mL (≈ 3.45 µM) and an MBC [31] of 4 µg/mL (≈ 1.72 µM). The MIC [31] was 4 µg/mL (≈ 1.72 µM), the MBC [32] was 256 µg/mL (≈ 110 µM) and the MIC [32] was 256 µg/mL (≈ 110 µM).
In the case of “KLAKLAKKLAKLAK [14-mer linear peptide, literature 14-mer linear peptide (Javadpour et al. 1996)]”, the antibacterial activity [33] is listed as “did not reveal any biological activity”, the hemolysis [34] is listed as “nonhemolytic” and the antibacterial activity [35] is listed as “showed activity”.

From patent publication US7884070B2, “Linear cationic peptides having antibacterial and/or antifungal properties” (priority 2002, dated 2011)
